Assay results published in US20220362279A1, “USE OF OLIGONUCLEOTIDES FOR THE TREATMENT AND PREVENTION OF PAIN” (CONSEJO NACIONAL DE INVESTIGACIONES CIENTÍFICAS Y TÉCNICAS, priority 2018, published 2022).
Entries after “also recorded” stand apart in the source; their conditions may differ. Strand notation (5' to 3'): a small letter for the sugar, then the base; units joined by * are phosphorothioate-linked, units joined directly phosphodiester-linked; [ ] holds rarer units or linkages, { } end groups; capitals alone tell only the bases. d = 2'-deoxy (DNA)

What was measured:
Assay type in all cases: in vivo, rat
[1] = test system: rats with hind paw inflammation (CFA rats); test: Hind paw dorsoventral thickness in rats with CFA-induced hind paw inflammation; details: preventive IMT504 before CFA; whole tested period
Experimental: (§1) In fifty-two rats anesthetized with Isoflurane (5% induction, 2.5% maintenance, 0.8 L/min O2 flow rate; Piramal Healthcare, UK), the right hind paw was injected intra-dermally with 100 μl of CFA (1:1, dissolved in normal saline; Sigma-Aldrich, Mo., USA), using a 1 ml syringe with a 25G needle attached. The animals (from now on, called CFA rats) were left to recover from anesthesia in a warm and quiet environment before relocating them in their corresponding cages.
In one set of experiments, called “preventive treatment”, four rats received a daily dose of 20 mg/kg IMT504 for five consecutive days and four weeks later one dose of 6 mg/kg (group a); a second group of four rats received one dose of 6mg/kg of IMT504 (group b) (FIG. 1A). Three days after the single injection of 6 mg/kg IMT504, all eight rats received intra-plantar CFA, after which they were tested for mechanical and cold allodynia during 21 days. At day 28, group b received an additional administration of IMT504 at a dose of 3 mg/kg and was evaluated until day 35. […]
Eight rats received a dose of 6 mg/kg IMT504 (FIGS. 2 and 3). […] On day 28 (FIG. 1) or 28 (FIG. 2), rats receiving preventive IMT504 were administered additional IMT504 at a dose of 3 mg/kg (FIG. 1) or 2 mg/kg (FIG. 2), and assessed until days 21-35.

[2] = test system: rats with hind paw inflammation (CFA rats); test: Mechanical allodynia (von Frey, 50% withdrawal threshold) in rats with CFA-induced hind paw inflammation
Experimental: as §1
In one set of experiments, called “preventive treatment”, four rats received a daily dose of 20 mg/kg IMT504 for five consecutive days and four weeks later one dose of 6 mg/kg (group a); a second group of four rats received one dose of 6mg/kg of IMT504 (group b) (FIG. 1A). Three days after the single injection of 6 mg/kg IMT504, all eight rats received intra-plantar CFA, after which they were tested for mechanical and cold allodynia during 21 days. At day 28, group b received an additional administration of IMT504 at a dose of 3 mg/kg and was evaluated until day 35.
In a second set of experiments, groups of rats were allocated to early or late treatment protocols (ET and LT, respectively), using a daily dose of 20 mg/kg IMT504 for five consecutive days (FIG. 2A). The ET protocol (n=5) was performed immediately after the intradermal injection of CFA in the hind paw; the LT protocol (n=5) was initiated seven days after the induction of hind paw inflammation (FIG. 2A). In all cases, animals where tested for pain-like behavior during four weeks after the induction of hind paw inflammation (days 1, 3, 7; weeks 2, 3 and 4).
In a third set of experiments, different concentrations and dosages of IMT504 were administered subcutaneously using the LT protocol (FIG. 3A). Rats were separated in three groups (n=5 per group) and treated as follows: i) a daily dose of 0.2 mg/kg of IMT504 for five consecutive days, ii) a daily dose of 2 mg/kg of IMT504 for five consecutive days, and iii) a daily dose of 2 mg/kg of IMT504 for three consecutive days. All these groups were tested for pain-like behavior up to seven weeks after induction of the hind paw inflammation.
(§2) Naïve (uninjured and untreated; n=16), CFA injured untreated (n=10), and vehicle-treated CFA (n=9) or SNI rats (n=10) were used as controls. Eight naïve rats remained untreated, four were vehicle-treated, and four received a daily dose of 20 mg/kg IMT504 for five consecutive days. Untreated CFA rats received an intradermal hind paw injection of CFA and no further treatment. Vehicle-treated CFA rats received five daily subcutaneous injections of saline (200 μl), starting seven days after injury. Vehicle-treated SNI rats received one single dose of saline (200 ul), starting seven days after injury.
(§3) For mechanical allodynia assessment, a set of von Frey filaments (Stoelting, Ill., USA) and the modified up-down method of Dixon were used, as described by Chaplan et al. (Chaplan S R, et, al., (1994) J. Neurosci Methods 53: 55-632) to establish the 50% withdrawal threshold. A withdrawal threshold of 6 g or less was considered an allodynic response.
as §1, with “seventeen” for “fifty-two”, “Scott-Cassara, Argentina),” for “Piramal Healthcare, UK),”, “MO,” for “Mo.,”, “needle.” for “needle attached.”, “(called” for “(from now on, called”, “relocating” for “relocating them”
Eight rats received a dose of 6 mg/kg IMT504 (FIGS. 2 and 3). Three days after the single injection of 6 mg/kg IMT504, all rats received intra-plantar complete Freund's Adjuvant (CFA), after which they were tested for mechanical and cold allodynia during 21-35 days. On day 28 (FIG. 1) or 28 (FIG. 2), rats receiving preventive IMT504 were administered additional IMT504 at a dose of 3 mg/kg (FIG. 1) or 2 mg/kg (FIG. 2), and assessed until days 21-35. […]

naïve rats = test: Hind paw mechanical withdrawal threshold in naïve rats; details: 20 mg/kg daily x5; observed up to 22 days; vs saline-treated naïve rats
Experimental: as §2, §3

rats with SNI = test: Mechanical allodynia in rats with spared nerve injury (SNI); details: single dose of 6 mg/kg seven days after SNI, s.c.
Excerpt: In twenty-six rats anesthetized with Isoflurane (5% induction, 2.5% maintenance, 0.8 L/min O2 flow rate; Piramal Healthcare, UK), the right sciatic nerve and its three distal branches were exposed by blunt dissection, and the tibial and common peronneal branches completely sectioned and ligated to prevent regeneration. The third branch, the sural nerve, was left intact. The animals received one single injection of ketoprofen for post-surgical pain control and were left to recover from anesthesia in a warm and quiet environment before relocating them in their corresponding cages.
Rats were administered subcutaneously using the LT protocol (FIG. 4A) and a single dose of 6 mg/kg of IMT504. This was followed by pain-like behavior testing for up to six weeks after SNI.
Naïve (uninjured and untreated; n=16), CFA injured untreated (n=10), and vehicle-treated CFA (n=9) or SNI rats (n=10) were used as controls. Eight naïve rats remained untreated, four were vehicle-treated, and four received a daily dose of 20 mg/kg IMT504 for five consecutive days. Untreated CFA rats received an intradermal hind paw injection of CFA and no further treatment. Vehicle-treated CFA rats received five daily subcutaneous injections of saline (200 μl), starting seven days after injury. Vehicle-treated SNI rats received one single dose of saline (200 ul), starting seven days after injury. […]

[3] = test system: rats with postsurgical pain (plantar incision); test: Naloxone challenge in IMT504-pre-treated rats with plantar incision, mechanical withdrawal threshold
Experimental: In all experiments, the oligodeoxynucleotide (ODN) IMT504, with sequence 5′-[sequence]-3′ (SEQ ID No 1) was used. The HPLC-grade phosphorothioate ODN (Biosynthesis Inc., Lewisville, Tex., USA) was suspended in sterile saline solution (VEH, 0.9% NaCl; 20 mg/ml; storage concentration) and assayed for LPS contamination. Working concentration doses (6 mg/kg) were obtained by additional dissolving in sterile VEH. The ODN was administered subcutaneously, at a final volume of 200-300 μl, depending on animal weight.
A group of rats also received an intraperitoneal (i.p.) injection of naloxone hydrochloride (Narxona 0.4 mg/ml; Scott-Cassara, Bs. As., Argentina), at a dose of 2 mg/kg, in order to test if the effect of IMT504 could be blocked by the pan-opioid receptor antagonist.
The rat hind paw plantar incision model of postoperative pain was used as previously described [Brennan, T. J., E. P. Vandermeulen, and G. F. Gebhart, Characterization of a rat model of incisional pain. […] Briefly, rats were anesthetized using isoflurane (5% induction, 2.5% maintenance, 0.8 l/min O2 flow rate; Piramal Healthcare, UK) and the plantar aspect of the right hind paw was disinfected with povidone iodine. A 1.0-cm longitudinal incision was made 0.5 cm from the end of the heel. The underlying flexor muscle was also incised longitudinally, allowing the muscle origin and insertion to remain intact. After hemostasis by gentle pressure, the skin was closed with sutures of 5-0 nylon.
Rats were divided into injured rats receiving IMT504 (6 mg/kg, dissolved in VEH) or VEH alone, 48h and 24 h prior to surgery. […]
Mechanical withdrawal thresholds were assessed by using von Frey nylon monofilaments of different bending forces (1.4, 2, 6, 8, 10, 15 and 26 g; Stoelting Inc., Wooddale, USA) and the modified up-down method of Dixon, as described by Chaplan and cols. (Chaplan, S. R., et al., Quantitative assessment of tactile allodynia in the rat paw. J Neurosci Methods, 1994. 53(1): p. 55-63) , to establish the 50% withdrawal threshold. […]

[4] = 6 mg/kg 3 days before CFA (FIG. 6, FIG. 8)

IMT504: synthetic phosphorothioate oligodeoxynucleotide with sequence 5′-TCATCATTTTGTCATTTTGTCATT-3′ (SEQ ID No 1) (DNA dT*dC*dA*dT*dC*dA*dT*dT*dT*dT*dG*dT*dC*dA*dT*dT*dT*dT*dG*dT*dC*dA*dT*dT)
effect on hind paw inflammation (dorsoventral paw thickness) [1]: does not prevent occurrence of inflammation; also recorded: did not seem to alter the natural course of hind paw inflammation; also recorded: without altering the inflammatory state of the affected hind paw
period after induction of inflammation during which IMT504 prevents mechanical allodynia [2, 4]: 7 days
time of reaching allodynic levels comparable to vehicle-treated rats [2, 4]: 14 days after injury
day by which mechanical withdrawal thresholds are fully comparable to injured untreated or vehicle-treated rats ([2]; 6 mg/kg 3 days before CFA, both groups (FIG. 10A, 11A)): 21 days
lack of mechanical allodynia until ([2]; 6 mg/kg 3 days before CFA, group with booster on day 21 (FIG. 11A)): 7 days after injury
lack of mechanical allodynia until ([2]; 6 mg/kg 3 days before CFA, group with booster on day 28 (FIG. 10A)): 3 days after injury
effect of a booster dose of 2 mg/kg IMT504 21 days after injury on mechanical allodynia ([2]; 6 mg/kg 3 days before CFA, booster 2 mg/kg day 21 (FIG. 11A)): completely restored the anti-allodynic effect
effect of an additional dose of 3 mg/kg IMT504 28 days after injury on mechanical allodynia ([2]; 6 mg/kg 3 days before CFA, booster 3 mg/kg day 28, observed one day after re-administration): quickly reverted; also recorded: complete reduction in mechanical and cold allodynia; also recorded: full recovery of basal withdrawal thresholds; also recorded: completely restored the anti-allodynic effect
recovery of basal mechanical withdrawal thresholds, ET protocol ([2]; 20 mg/kg daily x5, started immediately after CFA): reaching basal levels seven days after treatment initiation; also recorded: reaching basal thresholds seven days after injury and onwards
recovery of basal mechanical withdrawal thresholds, LT protocol ([2]; 20 mg/kg daily x5, started seven days after CFA): fully achieved seven days after initiation of the treatment; also recorded: recovery of basal mechanical withdrawal thresholds starting one week after treatment (two weeks after injury)
withdrawal thresholds of contralateral hind paws ([2]; IMT504-treated CFA rats, data not shown): remained normal; also recorded: normal basal values
start of progressive recovery towards basal mechanical withdrawal thresholds ([2]; LT protocols (0.2 or 2 mg/kg, three or five daily doses from day 7 after CFA), s.c.): 10 day after injury
recovery of mechanical withdrawal threshold ([2]; LT, 0.2 mg/kg daily x5, s.c., 0.2 mg/kg): slower, incomplete recovery, never reaching basal withdrawal thresholds; also recorded: not reaching the basal level
difference to vehicle-treated CFA rats towards the end of the assay ([2]; LT, 0.2 mg/kg daily x5, p>0.05): no significant differences with the vehicle-treated CFA rats
reaching basal ipsilateral withdrawal thresholds, counted from initiation of treatment ([2]; LT, three or five daily doses of 2 mg/kg, s.c.): reaching basal ipsilateral withdrawal thresholds at day five after initiation of the treatment and onwards
persistence of basal withdrawal thresholds ([2]; LT, three or five daily doses of 2 mg/kg, s.c., 2 mg/kg): maintained basal withdrawal thresholds throughout the whole assay period; also recorded: maintaining such a condition throughout the entire assay (seven weeks)
time at which mechanical withdrawal thresholds reach allodynic levels ([2]; preventive IMT504 (20 mg/kg x5 + 6 mg/kg, or 6 mg/kg only) three days before CFA, both groups): 14 days after injury
mechanical allodynia twenty-one days after injury ([2]; preventive IMT504, both groups, comparable to untreated CFA-rats): all animals reached basal allodynic levels
lack / prevention of mechanical allodynia after CFA-induced inflammation ([2]; preventive IMT504: 20 mg/kg daily x5 plus 6 mg/kg four weeks later, or 6 mg/kg only, CFA three days after the 6 mg/kg dose, both groups): prevention of mechanical allodynia; also recorded: lack of mechanical allodynia during the first three days
time from which basal withdrawal thresholds are recovered ([2]; single dose of 2 mg/kg, one week after CFA): 21 days after injury
recovery of basal withdrawal thresholds ([2]; single dose of 2 mg/kg, one week after CFA, 2 mg/kg): slower, but finally complete, recovery of basal withdrawal thresholds; also recorded: slower, incomplete recovery, never reaching basal withdrawal thresholds
hind paw mechanical withdrawal threshold in naïve rats (naïve rats): did not shown changes; also recorded: did not show any evident changes
full recovery of mechanical withdrawal thresholds (rats with SNI): fully recovered from week three and onwards
time from which mechanical withdrawal thresholds are almost at basal levels (rats with SNI): 12 days after injury
anti-allodynic effect of IMT504 under systemic non-selective opioid receptor antagonist ([3]; naloxone 2 mg/kg i.p. at day 3 after injury (FIG. 18)): temporarily blocked
mechanical allodynia on day 3 after injury ([3]; two doses of pre-emptive IMT504 (6 mg/kg, 48 h and 24 h before surgery)): completely abolished
